The text below walks through data of patent US7951530B2, “Cyclic maltosylmaltose, cyclic maltosymaltose-forming enzyme, their preparation and uses” (Kabushiki Kaisha Hayashibara Seibutsu Kagaku Kenkyujo, priority 2003, dated 2011).

Type in all cases: biochemical, Arthrobacter globiformis M6
For assay [1], the system named is CMM-forming enzyme. Briefly: Effects of metal ions on the enzyme activity. To be noted: for Effect on CMM-forming enzyme activity: 1 mM.
For assay [2], the system named is CMM-forming enzyme. Briefly: Action on various saccharides (substrate specificity, TLC). Details: key: “−” means “Not changed”; “+” means “Spot of substrate is slightly decreased and other products are detected”; “++” means “Spot of substrate is markedly decreased and other products are detected”; “+++” means “Spot of substrate is virtually disappeared and other products are detected”. The conditions noted are these: substrate 2% (w/v), one unit/g-substrate enzyme, 40° C., pH 6.0, 24 hours, TLC before and after reaction. On the procedure:
Substrate specificity of CMM-forming enzyme of the present invention was investigated using various saccharides as substrates. Substrate solutions were prepared by dissolving maltose, maltotriose, maltotetraose, maltopentaose, maltohexaose, maltoheptaose, neotrehalose, trehalose, kojibiose, nigerose, […] isomaltose, isomaltotriose, panose, isopanose, maltitol, maltotriitol, α-, β- or γ-cyclodextrin, amylose, soluble starch, glycogen, pullulan or dextran into water. Each substrate solution was admixed with acetate buffer (pH 6.0) and CaCl2 to give final concentrations of 20 mM and 1 mM, respectively. […] Substrate concentration was set to 2% (w/v) and followed by the enzyme reaction at 40° C. and pH 6.0 for 24 hours. Action and the specificity of the enzyme on these saccharides were confirmed by analyzing the reaction mixture before and after the reaction by TLC described in Experiment 1.

Assay [3] has as its system CMM-forming enzyme. Briefly: Formation of CMM from various substrates. The conditions noted are these: substrate 1.0% (w/v), one unit/g-substrate enzyme, 40° C., pH 6.0, 48 hours, HPLC. On the procedure:
Formation of CMM by the action of CMM-forming enzyme of the present invention was investigated using various saccharides as substrates. Maltotriose, maltotetraose, maltopentaose, maltohexaose, amylose, soluble starch, “[…] #100”, a partial starch hydrolyzate commercialized by Matsutani Chemical Industries Co., Ltd., Hyogo, Japan, or glycogen from corn, commercialized by Q.P. Corporation, Tokyo, Japan, was prepared into a solution. […] The reaction was stopped by heating the reaction mixture at 100° C. for 10 min. After treating the reaction mixture with α-glucosidase and glucoamylase by the same manner in Experiment 1, the amount of CMM was determined by HPLC and CMM content of the reaction mixture was measured.

The mark [4] stands for this setting: CMM-forming enzyme activity in the presence of 1 mM metal salt, None = 100.

Where two headings read alike, the source gives them in different places.

On to `[Cl][Al]([Cl])[Cl]` [AlCl3], for which the “Effect on CMM-forming enzyme activity” value in the assay on CMM-forming enzyme [1] is “inhibited”. In addition, the “Relative activity (%)” value in the assay on CMM-forming enzyme [1] (setting [4]) was found to be 13%. As for `[Ba+2].[Cl-].[Cl-]` [BaCl2], the “Relative activity (%)” value in the assay with CMM-forming enzyme [1] (setting [4]) is given as 90%. Still for that read-out and setting: the same measure for `[Ca+2].[Cl-].[Cl-]` [CaCl2]: 99%.

As to `[Cl-].[Cl-].[Co+2]` [CoCl2], the “Relative activity (%)” value in the assay on CMM-forming enzyme [1] came out at 95%. Turning to `[Cl][Cu][Cl]` [CuCl2], in the assay with CMM-forming enzyme [1], the “Effect on CMM-forming enzyme activity” value is listed as “remarkably inhibited”. In addition, in the assay on CMM-forming enzyme [1] (setting [4]), the “Relative activity (%)” value is reported as 1%. For the molecule `[Cl][Fe][Cl]` [FeCl2], the “Relative activity (%)” value with CMM-forming enzyme [1] (setting [4]) is 95%. Turning to `[Cl][Fe]([Cl])[Cl]` [FeCl3], the “Effect on CMM-forming enzyme activity” value in the assay on CMM-forming enzyme [1] is on record as “inhibited”. Further, the “Relative activity (%)” value in the assay with CMM-forming enzyme [1] (setting [4]) came to 32%.

Consider `[Cl][Hg][Cl]` [HgCl2], for which, in the assay on CMM-forming enzyme [1], the “Effect on CMM-forming enzyme activity” value is recorded as “remarkably inhibited”. In addition, the “Relative activity (%)” value with CMM-forming enzyme [1] (setting [4]) came to 2%. Turning to `OC[C@H]1O[C@H](OC[C@H]2OC(O)[C@H](O)[C@@H](O)[C@@H]2O)[C@H](O)[C@@H](O)[C@@H]1O` (some centres unmarked) [Isomaltose, isomaltose], in the assay with CMM-forming enzyme [2], the Action entry is reported as “−”. Same read-out and setting: next, `OC[C@H]1O[C@H](OC[C@H]2O[C@H](OC[C@H]3OC(O)[C@H](O)[C@@H](O)[C@@H]3O)[C@H](O)[C@@H](O)[C@@H]2O)[C@H](O)[C@@H](O)[C@@H]1O` (some centres unmarked) [Isomaltotriose, isomaltotriose]: “−”; `OC[C@H]1O[C@H](O[C@H]2[C@H](O)[C@@H](O)[C@@H](OC[C@H]3OC(O)[C@H](O)[C@@H](O)[C@@H]3O)O[C@@H]2CO)[C@H](O)[C@@H](O)[C@@H]1O` (some centres unmarked) [Isopanose, isopanose]: “−”; `OC[C@H]1O[C@H](O[C@H]2C(O)O[C@H](CO)[C@@H](O)[C@@H]2O)[C@H](O)[C@@H](O)[C@@H]1O` (some centres unmarked) [Kojibiose, kojibiose]: “−”. Consider `OC[C@H]1O[C@H](O[C@H]2[C@H](O)[C@@H](O)[C@@H](O[C@H]3[C@H](O)[C@@H](O)[C@@H](O[C@H]4[C@H](O)[C@@H](O)C(O)O[C@@H]4CO)O[C@@H]3CO)O[C@@H]2CO)[C@H](O)[C@@H](O)[C@@H]1O` (some centres unmarked) [Maltotetraose, maltotetraose], for which the “CMM content (%)” value with CMM-forming enzyme [3] is on record as 27.3%. Moreover, in the assay on CMM-forming enzyme [2], the Action entry is “+++”. Consider `OC[C@@H](O)[C@@H](O[C@H]1O[C@H](CO)[C@@H](O[C@H]2O[C@H](CO)[C@@H](O)[C@H](O)[C@H]2O)[C@H](O)[C@H]1O)[C@H](O)[C@@H](O)CO` [Maltotriitol, maltotriitol], for which, in the assay with CMM-forming enzyme [2], the Action entry is reported as “−”.

`[Cl-].[Cl-].[Mg+2]` [MgCl2]: the “Relative activity (%)” value in the assay on CMM-forming enzyme [1] (setting [4]) was found to be 98%. On to `[Cl][Mn][Cl]` [MnCl2], for which the “Relative activity (%)” value in the assay with CMM-forming enzyme [1] (setting [4]) was 97%. As for `OC[C@H]1O[C@@H](O[C@H]2O[C@H](CO)[C@@H](O)[C@H](O)[C@H]2O)[C@H](O)[C@@H](O)[C@@H]1O` [Neotrehalose, neotrehalose], in the assay on CMM-forming enzyme [2], the Action entry is listed as “−”. As for `[Cl][Ni][Cl]` [NiCl2], in the assay with CMM-forming enzyme [1] (setting [4]), the “Relative activity (%)” value came out at 90%.

Regarding `OC[C@H]1O[C@H](O[C@H]2[C@H](O)[C@@H](CO)OC(O)[C@@H]2O)[C@H](O)[C@@H](O)[C@@H]1O` (some centres unmarked) [Nigerose, nigerose], the Action entry in the assay with CMM-forming enzyme [2] is on record as “−”.

Regarding `OC[C@H]1O[C@H](OC[C@H]2O[C@H](O[C@H]3[C@H](O)[C@@H](O)C(O)O[C@@H]3CO)[C@H](O)[C@@H](O)[C@@H]2O)[C@H](O)[C@@H](O)[C@@H]1O` (some centres unmarked) [Panose, panose], the Action entry with CMM-forming enzyme [2] is recorded as “−”.

Take `[Cl][Pb][Cl]` [PbCl2]: the “Effect on CMM-forming enzyme activity” value with CMM-forming enzyme [1] is “inhibited”. The “Relative activity (%)” value with CMM-forming enzyme [1] (setting [4]) was 36%. On to `[Cl-].[Cl-].[Sr+2]` [SrCl2], for which the “Relative activity (%)” value in the assay on CMM-forming enzyme [1] (setting [4]) is listed as 90%.

For the molecule `OC[C@H]1O[C@H](O[C@H]2O[C@H](CO)[C@@H](O)[C@H](O)[C@H]2O)[C@H](O)[C@@H](O)[C@@H]1O` [Trehalose, trehalose], the Action entry with CMM-forming enzyme [2] is listed as “−”. For the molecule `[Cl-].[Cl-].[Zn+2]` [ZnCl2], the “Relative activity (%)” value in the assay with CMM-forming enzyme [1] (setting [4]) is 73%. With `OC[C@H]1O[C@@H]2O[C@H]3[C@H](O)[C@@H](O)[C@@H](O[C@H]4[C@H](O)[C@@H](O)[C@@H](O[C@H]5[C@H](O)[C@@H](O)[C@@H](O[C@H]6[C@H](O)[C@@H](O)[C@@H](O[C@H]7[C@H](O)[C@@H](O)[C@@H](O[C@H]1[C@H](O)[C@H]2O)O[C@@H]7CO)O[C@@H]6CO)O[C@@H]5CO)O[C@@H]4CO)O[C@@H]3CO` [α-Cyclodextrin, α-cyclodextrin], the Action entry with CMM-forming enzyme [2] is “−”. As to `OC[C@H]1O[C@@H]2O[C@H]3[C@H](O)[C@@H](O)[C@@H](O[C@H]4[C@H](O)[C@@H](O)[C@@H](O[C@H]5[C@H](O)[C@@H](O)[C@@H](O[C@H]6[C@H](O)[C@@H](O)[C@@H](O[C@H]7[C@H](O)[C@@H](O)[C@@H](O[C@H]8[C@H](O)[C@@H](O)[C@@H](O[C@H]1[C@H](O)[C@H]2O)O[C@@H]8CO)O[C@@H]7CO)O[C@@H]6CO)O[C@@H]5CO)O[C@@H]4CO)O[C@@H]3CO` [β-Cyclodextrin, β-cyclodextrin], the Action result with CMM-forming enzyme [2] was “−”. The same measure, in the same setting: the same measure for `OC[C@H]1O[C@@H]2O[C@H]3[C@H](O)[C@@H](O)[C@@H](O[C@H]4[C@H](O)[C@@H](O)[C@@H](O[C@H]5[C@H](O)[C@@H](O)[C@@H](O[C@H]6[C@H](O)[C@@H](O)[C@@H](O[C@H]7[C@H](O)[C@@H](O)[C@@H](O[C@H]8[C@H](O)[C@@H](O)[C@@H](O[C@H]9[C@H](O)[C@@H](O)[C@@H](O[C@H]1[C@H](O)[C@H]2O)O[C@@H]9CO)O[C@@H]8CO)O[C@@H]7CO)O[C@@H]6CO)O[C@@H]5CO)O[C@@H]4CO)O[C@@H]3CO` [γ-Cyclodextrin, γ-cyclodextrin]: “−”. As to amylose, the “CMM content (%)” value is listed as 41.8% with CMM-forming enzyme [3] and “about 42%” with CMM-forming enzyme [3] (listed as amylose). Also, the Action result in the assay with CMM-forming enzyme [2] is “+++”. dextran: the Action entry in the assay on CMM-forming enzyme [2] is recorded as “−”.

Regarding glycogen, the “CMM content (%)” value in the assay with CMM-forming enzyme [3] was 29.5%; in the assay on CMM-forming enzyme [3] (listed as glycogen), “about 30%”. In the assay on CMM-forming enzyme [2], the Action result is listed as “++”. On to maltoheptaose, for which the “CMM content (%)” value with CMM-forming enzyme [3] is recorded as 36.6%. For the same molecule, the Action result in the assay on CMM-forming enzyme [2] is “+++”. The like results for maltohexaose were, in that order, 41.6% and “+++”. The like results for maltopentaose were, in that order, 24.4% and “+++”. Regarding maltotriose, the “CMM content (%)” value with CMM-forming enzyme [3] is 0.6%; in the assay with CMM-forming enzyme [3] (listed as maltotriose) it was “about 0.6%”. For the same molecule, the Action result with CMM-forming enzyme [2] is given as “+”. On to pullulan, for which, in the assay on CMM-forming enzyme [2], the Action result is recorded as “−”.

Consider soluble starch, for which the entries for the “CMM content (%)” value in the assay on CMM-forming enzyme [3] and with CMM-forming enzyme [3] (listed as soluble starch) were 31.4% and “about 30%”, respectively. The Action entry with CMM-forming enzyme [2] was “+++”.
